One experiment has as its target T1, CynT2 (Escherichia coli, UniProt P61517).
T1 construct: gene can; oligomer not determined (dimer or tetramer stated for bacterial beta-CAs in general)
In words: stopped-flow CO2 hydrase assay, phenol red. It is filed as biochemical.
Conditions: not given
T1 sequence (P61517 whole entry): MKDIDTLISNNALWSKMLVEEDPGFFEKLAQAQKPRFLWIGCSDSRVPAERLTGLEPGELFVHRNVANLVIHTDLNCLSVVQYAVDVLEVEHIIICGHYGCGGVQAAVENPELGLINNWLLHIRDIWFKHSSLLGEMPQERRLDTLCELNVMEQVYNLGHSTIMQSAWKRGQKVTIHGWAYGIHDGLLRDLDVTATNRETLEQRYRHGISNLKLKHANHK
Take `NCCc1ccc(S(N)(=O)=O)cc1` [compound 6, 6]: the Ki is 3320 nM.

The experiment is the same for the next values; noted with them: read-out: KI *(nM) / CynT2.
For the compound `CCN[C@H]1CN(CCCOC)S(=O)(=O)c2sc(S(N)(=O)=O)cc21` [BRZ, Brinzolamide], the Ki is 2050 nM.

`NS(=O)(=O)c1nnc(NS(=O)(=O)c2ccccc2)s1` [BZA, Benzolamide]: the Ki came out at 276 nM.

`Cc1ccc(-c2cc(C(F)(F)F)nn2-c2ccc(S(N)(=O)=O)cc2)cc1` [CLX, Celecoxib]: the Ki is 1890 nM.

`NS(=O)(=O)c1cc(Cl)c(Cl)c(S(N)(=O)=O)c1` [DCP, Dichlorophenamide]: the Ki is more than 10000 nM.

`NS(=O)(=O)NCCNc1nonc1C(=NO)Nc1ccc(F)c(Br)c1` [EPA, Epacadostat]: the Ki was found to be 2560 nM.

Regarding `NC(N)=Nc1nc(CSCCC(N)=NS(N)(=O)=O)cs1` [FAM, Famotidine], the Ki turned out to be 2770 nM.

As to `NS(=O)(=O)c1cc2c(cc1Cl)NCNS2(=O)=O` [HCT, Hydrochlorothiazide], the Ki is 5010 nM.

`NS(=O)(=O)c1ccc(S(=O)(=O)Nc2cccc3c(Cl)c[nH]c23)cc1` [IND, Indisulam]: the Ki was 2390 nM.

Consider `CC(=O)N=c1sc(S(N)(=O)=O)nn1C` [MZA, Methazolamide], for which the Ki was found to be 480 nM.

For `O=C1NS(=O)(=O)c2ccccc21` [SAC, Saccharin], the Ki worked out at 6690 nM.

In the case of `CCN1CCCC1CNC(=O)c1cc(S(N)(=O)=O)ccc1OC` (centres unmarked) [SLP, Sulpiride], the Ki was determined as 97 nM.

On to `NS(=O)(=O)c1ccc(N2CCCCS2(=O)=O)cc1` [SLT, Sulthiame], for which the Ki was 285 nM.

As for `CC1(C)O[C@@H]2[C@@H](CO[C@@]3(COS(N)(=O)=O)OC(C)(C)O[C@@H]23)O1` [TPM, Topiramate], the Ki amounted to 3360 nM.

Consider `Cc1onc(-c2ccccc2)c1-c1ccc(S(N)(=O)=O)cc1` [VLX, Valdecoxib], for which the Ki is 2750 nM.

As to `NS(=O)(=O)Cc1noc2ccccc12` [ZNS, Zonisamide], the Ki came out at 3190 nM.

`Nc1cccc(S(N)(=O)=O)c1` [compound 1, 1]: the Ki came to 705 nM.

`Nc1ccc(S(N)(=O)=O)cc1` [compound 2, 2]: the Ki amounted to 790 nM.

Regarding `NS(=O)(=O)c1cccc(S(N)(=O)=O)c1` [compound 3, 3], the Ki amounted to 457 nM.

With `Cc1ccc(S(N)(=O)=O)cc1` [compound 4, 4], the Ki is 3010 nM.

On to `NCc1ccc(S(N)(=O)=O)cc1` [compound 5, 5], for which the Ki amounted to 2840 nM.

As for `Nc1ccc(S(N)(=O)=O)cc1F` [compound 7, 7], the Ki is more than 10000 nM.

`Nc1ccc(S(N)(=O)=O)cc1Cl` [compound 8, 8]: the Ki is more than 10000 nM.

With `Nc1ccc(S(N)(=O)=O)cc1Br` [compound 9, 9], the Ki was determined as 2710 nM.

In the case of `NS(=O)(=O)c1cc(Cl)cc(Cl)c1O` [compound 10, 10], the Ki was determined as 8560 nM.

As to `Nc1cc(C(F)(F)F)c(S(N)(=O)=O)cc1S(N)(=O)=O` [compound 11, 11], the Ki is 6250 nM.

Regarding `Nc1cc(Cl)c(S(N)(=O)=O)cc1S(N)(=O)=O` [compound 12, 12], the Ki was 4390 nM.

Consider `Nc1nnc(S(N)(=O)=O)s1` [compound 13, 13], for which the Ki was 4120 nM.

As to `Cn1nc(S(N)(=O)=O)sc1=N` [compound 14, 14], the Ki is 440 nM.

For `NS(=O)(=O)c1ccc(O)cc1` [compound 15, 15], the Ki is 6440 nM.

For `NS(=O)(=O)c1ccc(CO)cc1` [compound 16, 16], the Ki turned out to be 2340 nM.

As to `NS(=O)(=O)c1ccc(CCO)cc1` [compound 17, 17], the Ki was found to be 502 nM.

For `NS(=O)(=O)c1ccc(C(=O)O)cc1` [compound 18, 18], the Ki was found to be 205 nM.

For the compound `Nc1nccc(Nc2ccc(S(N)(=O)=O)cc2)n1` [compound 19, 19], the Ki came to 416 nM.

Take `Nc1ccc(S(=O)(=O)Nc2nnc(S(N)(=O)=O)s2)cc1` [compound 20, 20]: the Ki was 726 nM.

As to `Nc1ccc(S(=O)(=O)Nc2ccc(S(N)(=O)=O)cc2)cc1` [compound 22, 22], the Ki worked out at 93 nM.

Consider `Nc1ccc(S(=O)(=O)NCc2ccc(S(N)(=O)=O)cc2)cc1` [compound 23, 23], for which the Ki worked out at 322 nM.

As to `Nc1ccc(S(=O)(=O)NCCc2ccc(S(N)(=O)=O)cc2)cc1` [compound 24, 24], the Ki worked out at 82 nM.

For the origin of these results see article PMC7312386, “The Effect of Substituted Benzene-Sulfonamides and Clinically Licensed Drugs on the Catalytic Activity of CynT2, a Carbonic Anhydrase Crucial for Escherichia coli Life Cycle” (International Journal of Molecular Sciences, 2020).
